These are literature values, as cited in patent US12357645B2, “Drug combination for treatment of gastric cancer” (priority 2023, dated 2025).

For one data set, the system named is gastric cancer. The settings on record: by stimulating expression of p53 and p21 (waf1/cip1); cited from earlier work.
For data set [1] the following is noted: cited from earlier work.

Take `CC(C)[C@]12O[C@H]1[C@@H]1O[C@]13[C@]1(O[C@H]1C[C@H]1C4=C(CC[C@@]13C)C(=O)OC4)[C@@H]2O` [triptolide, reference compound]: the “cell growth and apoptosis” value in the data set with gastric cancer was “inhibit cell growth and induce apoptosis”. Also, the aqueous solubility entry in data set [1] is given as “limited aqueous solubility”.
